{"source": "ChEMBL document CHEMBL5518193", "about": "“Discovery of N-alkyl-N-benzyl thiazoles as novel TRPC antagonists for the treatment of glioblastoma multiforme” (Eur J Med Chem, 2024)", "key": {"[1]": {"molecular_target": "T1, Short transient receptor potential channel 6 (Homo sapiens, UniProt Q9Y210)", "T1 sequence (Q9Y210 whole entry)": "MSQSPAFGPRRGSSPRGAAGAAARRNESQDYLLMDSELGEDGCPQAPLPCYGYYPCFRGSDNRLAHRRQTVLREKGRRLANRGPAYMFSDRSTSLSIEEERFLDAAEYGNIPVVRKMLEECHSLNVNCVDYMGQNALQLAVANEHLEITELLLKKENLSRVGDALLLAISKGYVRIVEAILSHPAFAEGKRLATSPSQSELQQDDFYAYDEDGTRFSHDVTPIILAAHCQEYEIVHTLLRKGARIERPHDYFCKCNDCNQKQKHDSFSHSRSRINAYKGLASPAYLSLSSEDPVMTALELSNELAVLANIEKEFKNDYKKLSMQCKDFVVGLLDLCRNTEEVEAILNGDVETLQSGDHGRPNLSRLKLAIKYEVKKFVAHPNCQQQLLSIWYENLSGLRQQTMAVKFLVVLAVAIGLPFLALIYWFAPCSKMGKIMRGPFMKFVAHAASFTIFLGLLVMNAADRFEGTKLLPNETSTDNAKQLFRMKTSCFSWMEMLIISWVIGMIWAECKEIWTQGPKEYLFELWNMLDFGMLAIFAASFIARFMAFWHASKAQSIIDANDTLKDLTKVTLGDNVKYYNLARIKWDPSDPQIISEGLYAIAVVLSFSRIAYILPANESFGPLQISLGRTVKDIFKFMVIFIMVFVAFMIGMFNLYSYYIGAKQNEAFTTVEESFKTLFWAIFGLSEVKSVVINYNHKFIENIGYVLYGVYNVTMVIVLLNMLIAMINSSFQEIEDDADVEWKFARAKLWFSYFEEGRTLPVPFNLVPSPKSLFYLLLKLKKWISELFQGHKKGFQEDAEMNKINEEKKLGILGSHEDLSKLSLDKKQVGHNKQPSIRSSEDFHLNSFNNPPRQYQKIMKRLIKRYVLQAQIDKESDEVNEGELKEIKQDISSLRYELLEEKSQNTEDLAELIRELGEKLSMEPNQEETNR", "assay": "Antagonist activity at TRPC6 (unknown origin) assessed as inhibition of channel activity"}, "[2]": {"molecular_target": "T2, Short transient receptor potential channel 5 (Homo sapiens, UniProt Q9UL62)", "T2 sequence (Q9UL62 whole entry)": "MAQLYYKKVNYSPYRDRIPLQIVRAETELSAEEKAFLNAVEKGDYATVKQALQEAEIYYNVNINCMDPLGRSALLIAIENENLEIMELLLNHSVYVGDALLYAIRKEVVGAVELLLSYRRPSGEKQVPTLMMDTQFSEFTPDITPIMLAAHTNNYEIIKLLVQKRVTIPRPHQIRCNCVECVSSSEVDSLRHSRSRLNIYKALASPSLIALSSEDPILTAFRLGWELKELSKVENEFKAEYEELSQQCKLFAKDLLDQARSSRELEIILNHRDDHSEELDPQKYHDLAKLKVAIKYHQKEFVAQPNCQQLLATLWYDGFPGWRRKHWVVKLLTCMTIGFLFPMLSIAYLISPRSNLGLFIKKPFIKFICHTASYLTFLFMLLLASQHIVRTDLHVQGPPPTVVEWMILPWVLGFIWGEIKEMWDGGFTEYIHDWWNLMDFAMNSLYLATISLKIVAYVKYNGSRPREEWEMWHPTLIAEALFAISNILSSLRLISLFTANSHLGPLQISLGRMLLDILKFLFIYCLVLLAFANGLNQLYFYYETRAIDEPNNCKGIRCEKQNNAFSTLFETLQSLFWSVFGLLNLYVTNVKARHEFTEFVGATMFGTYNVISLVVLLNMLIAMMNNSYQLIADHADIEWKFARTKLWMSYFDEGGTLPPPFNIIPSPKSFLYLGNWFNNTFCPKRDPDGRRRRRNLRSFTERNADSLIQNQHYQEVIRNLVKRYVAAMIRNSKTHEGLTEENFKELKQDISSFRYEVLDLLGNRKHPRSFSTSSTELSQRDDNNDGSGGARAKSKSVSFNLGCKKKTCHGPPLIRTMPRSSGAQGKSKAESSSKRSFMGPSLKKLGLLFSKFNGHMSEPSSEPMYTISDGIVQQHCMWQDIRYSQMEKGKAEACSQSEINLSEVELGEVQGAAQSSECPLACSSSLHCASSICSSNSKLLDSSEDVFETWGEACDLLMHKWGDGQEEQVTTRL", "assay": "Antagonist activity at TRPC5 (unknown origin) assessed as inhibition of channel activity"}}}
{"smiles": "O=C1O/C(=C/Br)CCC1c1cccc2ccccc12", "note": "(configuration not stated) [BROMOENOL LACTONE]", "values": [{"measurement": "IC50", "setting": "[1]", "value": 7.2, "unit": "µM"}, {"measurement": "IC50", "setting": "[2]", "value": 10.6, "unit": "µM"}]}
